Test results from PubChem BioAssay (NCI).
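Cells were grown in 96-well plates and exposed to each compound for 48 hours at five concentrations; endpoints were interpolated linearly between bracketing concentrations, or set to the highest concentration if not reached. At the TGI there is no net growth.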

What was measured:
Experiment in all cases: NCI tumour cell line growth inhibition, 48 h
786-0 renal = test system: 786-0 renal
A498 renal = test system: A498 renal
A549 NSCLC = test system: A549 NSCLC
ACHN renal = test system: ACHN renal
BT-549 breast = test system: BT-549 breast
CAKI-1 renal = test system: CAKI-1 renal
CCRF-CEM leukemia = test system: CCRF-CEM leukemia
COLO 205 colon = test system: COLO 205 colon
DU-145 prostate = test system: DU-145 prostate
EKVX NSCLC = test system: EKVX NSCLC
HCC-2998 colon = test system: HCC-2998 colon
HCT-116 colon = test system: HCT-116 colon
HCT-15 colon = test system: HCT-15 colon
HL-60(TB) leukemia = test system: HL-60(TB) leukemia
HOP-62 NSCLC = test system: HOP-62 NSCLC
HS 578T breast = test system: HS 578T breast
HT29 colon = test system: HT29 colon
IGROV1 ovarian = test system: IGROV1 ovarian
K-562 leukemia = test system: K-562 leukemia
KM12 colon = test system: KM12 colon
LOX IMVI melanoma = test system: LOX IMVI melanoma
M14 melanoma = test system: M14 melanoma
MALME-3M melanoma = test system: MALME-3M melanoma
MCF7 breast = test system: MCF7 breast
MDA-MB-231 breast = test system: MDA-MB-231 breast
MDA-MB-435 = test system: MDA-MB-435
MDA-N = test system: MDA-N
MOLT-4 leukemia = test system: MOLT-4 leukemia
NCI-H226 lung = test system: NCI-H226 lung
NCI-H23 lung = test system: NCI-H23 lung
NCI-H460 lung = test system: NCI-H460 lung
NCI-H522 lung = test system: NCI-H522 lung
OVCAR-8 ovarian = test system: OVCAR-8 ovarian
PC-3 prostate = test system: PC-3 prostate
RPMI-8226 leukemia = test system: RPMI-8226 leukemia
SF-268 CNS = test system: SF-268 CNS
SF-295 CNS = test system: SF-295 CNS
SF-539 CNS = test system: SF-539 CNS
SK-MEL-28 melanoma = test system: SK-MEL-28 melanoma
SK-MEL-5 melanoma = test system: SK-MEL-5 melanoma
SK-OV-3 ovarian = test system: SK-OV-3 ovarian
SN12C renal = test system: SN12C renal
SNB-19 CNS = test system: SNB-19 CNS
SNB-75 CNS = test system: SNB-75 CNS
SR leukemia = test system: SR leukemia
SW-620 colon = test system: SW-620 colon
T-47D breast = test system: T-47D breast
TK-10 renal = test system: TK-10 renal
UACC-257 melanoma = test system: UACC-257 melanoma
UACC-62 melanoma = test system: UACC-62 melanoma
UO-31 renal = test system: UO-31 renal
HOP-92 NSCLC = test system: HOP-92 NSCLC
NCI/ADR-RES ovarian = test system: NCI/ADR-RES ovarian
OVCAR-3 ovarian = test system: OVCAR-3 ovarian
OVCAR-4 ovarian = test system: OVCAR-4 ovarian
OVCAR-5 ovarian = test system: OVCAR-5 ovarian
RXF 393 renal = test system: RXF 393 renal
SK-MEL-2 melanoma = test system: SK-MEL-2 melanoma
U251 CNS = test system: U251 CNS

Measured: TGI

C=CCOCn1ccc(=O)[nH]c1=O
not listed: HOP-92 NSCLC | NCI/ADR-RES ovarian | OVCAR-3 ovarian | OVCAR-4 ovarian | OVCAR-5 ovarian | RXF 393 renal | SK-MEL-2 melanoma | U251 CNS
> 100 µM: all other assays above

Cc1ccc(S(=O)(=O)N2CCCCN(S(=O)(=O)c3ccc(C)cc3)Cc3ccccc3OCCOCCOc3c4cccc3Cc3cccc5c3OCCOCCOc3ccccc3CN(S(=O)(=O)c3ccc(C)cc3)CCCN(S(=O)(=O)c3ccc(C)cc3)Cc3ccccc3OCCOCCOc3c(cccc3C4)Cc3cccc(c3OCCOCCOc3ccccc3C2)C5)cc1
not listed: HL-60(TB) leukemia | SK-MEL-28 melanoma | SR leukemia
> 100 µM: all other assays above
